{
  "source": "paper PMC11874377",
  "about": "“Fungal-derived methyldeoxaphomins target Plasmodium falciparum segregation through the inhibition of PfActin1” (Proceedings of the National Academy of Sciences of the …, 2025)",
  "key": {"[1]": {"tested_on": "P. berghei liver stage in HepG2 cells", "assay": "High content imaging liver stage screening", "assay_type": "cell-based, Plasmodium berghei", "protocol": "Given these findings, we sought to observe the effects of NPDG-F on hepatic merozoites to see whether they were similarly impacted. To this end, HepG2 cells were infected with P. berghei sporozoites expressing luciferase and seeded onto a microtiter plate with NPDG-F at 2 HPI. At 72 HPI, a high content imaging (HCI) readout of treated parasites was performed to observe the impact on parasite maturation and merozoite formation via the expression of liver stage maturation markers MSP1 and AMA1. […] Infected monolayers treated with 1.1 µM of methyldeoxaphomin NPDG-F from 2-55 HPI were immunolabeled to examine the localization of MSP1 and AMA1 relative to parasite DNA during the period of merozoite formation (Fig. 4G). […]\nParasite reduction ratio adapted from protocol by Sanz et al (Sanz et al., 2012). […] After 3 weeks, growth was determined via SYBR Green I staining. The PRR was calculated and graphed using Graphpad Prism version […]\nTo examine the impact of methyldeoxaphomin NDPG F on the Plasmodium liver stage, HepG2 cells were infected with a luciferase-expressing strain of P. berghei. […] At 48 HPI, luciferase expression was measured as described(Van Voorhis et al., 2016) and parasite growth was quantified. After 72 HPI, High content imaging was performed to observe the relative expression of MSP1 and AMA1, the size and quantity of exoerythrocytic form parasites, and the HepG2 area occupied. […]"}, "P. falciparum": {"tested_on": "P. falciparum", "assay": "Parasite reduction ratio (PRR)", "assay_type": "cell-based, Plasmodium falciparum", "conditions": "10 × EC50", "protocol": "After a 24 h lag phase, only 10^0.64 parasites are killed within the first replication cycle (48 h). […] We also examined the in vitro killing rate in Dd2 through flow cytometric analysis. […]\nParasite reduction ratio adapted from protocol by Sanz et al (Sanz et al., 2012). In brief, early ring stage mono-infected RBCs at 106 were incubated with a 10 x EC50 concentration of NPDG-F, DHA, or atovaquone for either 24, 48, 72, 96, or 120 h. Following incubations, cells were washed and serially diluted. After 3 weeks, growth was determined via SYBR […]\nGreen I staining. […]"}},
  "data": [
    {"smiles": "C=C1C(C)C2C(Cc3ccccc3)NC(=O)C23C(=O)C=CC(O)C(O)C(C)CC(C)CC=CC3C1O", "note": "(stereo not drawn) [Methyldeoxaphomin NPDG-F]", "values": [
      {"measurement": "effect on liver-stage parasite development", "setting": "[1]; 1.1 µM from 2-55 HPI", "result": "developmental failure during schizogony"},
      {"measurement": "MSP1 positive exoerythrocytic form (EEF) parasites remaining in the monolayer", "setting": "[1]; 72 HPI, added at 2 HPI", "result": "sharp increase"},
      {"measurement": "99.9% PCT (parasite clearance time)", "setting": "P. falciparum", "result": "more than 96 h"},
      {"measurement": "killing profile", "setting": "P. falciparum", "result": "gradual killing profile"},
      {"measurement": "lag phase", "setting": "P. falciparum", "result": 24, "unit": "h"},
      {"measurement": "log(PRR)", "setting": "P. falciparum", "result": 0.64}
    ]}
  ]
}
